Results: patent US7928140B2, “Benzothiazole PI3 kinase modulators for cancer treatment” (Amgen Inc., priority 2007, dated 2011)
Where two headings read alike, the source gives them in different places.

How the values were obtained:
[1] = biological target: T1, PI3K α (Homo sapiens, UniProt P42336); assay: In vitro PI3 kinase enzyme assay (alpha), ATP loss, bioluminescence; format: biochemical; conditions: read-out: PI3Kα ATP loss IC50;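 also: purified p110α/p85 heterodimer acting on PtdIns(4,5)P2 at room temperature, remaining ATP read by luminescence, inhibition scaled between compound-free wells with and without enzyme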
T1 construct: Full length p110 subunits of PI3K α, β and δ, N-terminally labeled with polyHis tag; polyHis (N); made in house; host or cells: Sf9 insect cells (baculovirus)

[2] = biological target: T2, PI3K β (Homo sapiens, UniProt P42338); assay: In vitro PI3 kinase enzyme assay (beta), ATP loss, bioluminescence; format: biochemical; conditions: read-out: PI3Kβ ATP loss IC50;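 also: purified p110β/p85 heterodimer with PtdIns(4,5)P2 as acceptor, incubated at room temperature, leftover ATP read by luminescence, inhibition scaled to compound-free wells with and without enzyme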
T2 construct: Full length p110 subunits of PI3K α, β and δ, N-terminally labeled with polyHis tag; polyHis (N); made in house; host or cells: Sf9 insect cells (baculovirus)

[3] = test system: phosphorylation of Serine 473 in Akt, HCT 116 human colon carcinoma cells; assay: Cell-based phospho-AKT Ser473 assay (MSD sandwich immunoassay, IGF-1 stimulated); conditions: read-out: HCT 116 pAKT IC50
How it was run: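 HCT116 cells, 16,000/well and plated overnight, were pre-treated with serially diluted compound for 2 h at 37 °C, then stimulated with IGF-1 at 100 ng/ml for 15 min. Lysates were assayed for Akt pSer473 by MSD sandwich electrochemiluminescence, and IC50 was derived from dose-response data.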

[4] = Homo sapiens, HCT-116, HCT 116 cells

T2 sequence (P42338 whole entry): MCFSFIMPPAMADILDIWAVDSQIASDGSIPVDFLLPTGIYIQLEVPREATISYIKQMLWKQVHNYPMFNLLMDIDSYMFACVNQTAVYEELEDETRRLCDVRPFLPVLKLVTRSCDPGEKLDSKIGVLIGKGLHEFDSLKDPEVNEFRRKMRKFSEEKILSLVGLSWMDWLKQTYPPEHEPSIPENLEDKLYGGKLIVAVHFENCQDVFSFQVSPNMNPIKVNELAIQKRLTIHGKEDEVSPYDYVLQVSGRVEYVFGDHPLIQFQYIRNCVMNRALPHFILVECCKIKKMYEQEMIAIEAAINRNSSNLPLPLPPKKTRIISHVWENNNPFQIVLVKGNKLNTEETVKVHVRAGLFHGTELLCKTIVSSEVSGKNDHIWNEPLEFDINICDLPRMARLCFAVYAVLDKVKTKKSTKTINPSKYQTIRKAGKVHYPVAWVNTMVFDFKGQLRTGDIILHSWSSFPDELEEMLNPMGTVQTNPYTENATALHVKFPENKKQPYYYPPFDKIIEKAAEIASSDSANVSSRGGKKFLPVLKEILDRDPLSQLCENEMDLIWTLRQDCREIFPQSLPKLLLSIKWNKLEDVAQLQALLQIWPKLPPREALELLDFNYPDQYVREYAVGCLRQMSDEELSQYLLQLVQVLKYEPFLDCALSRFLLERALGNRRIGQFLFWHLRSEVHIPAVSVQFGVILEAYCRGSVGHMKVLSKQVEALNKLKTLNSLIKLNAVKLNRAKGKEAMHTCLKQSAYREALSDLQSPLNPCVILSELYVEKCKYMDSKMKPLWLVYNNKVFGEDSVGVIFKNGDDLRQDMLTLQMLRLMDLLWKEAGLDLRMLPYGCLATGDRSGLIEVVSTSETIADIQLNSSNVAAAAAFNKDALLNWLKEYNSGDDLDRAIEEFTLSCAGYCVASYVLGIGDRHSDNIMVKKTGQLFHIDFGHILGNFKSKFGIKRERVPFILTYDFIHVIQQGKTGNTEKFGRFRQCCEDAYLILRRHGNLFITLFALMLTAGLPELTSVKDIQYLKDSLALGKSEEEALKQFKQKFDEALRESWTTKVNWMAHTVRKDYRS
T2 sequence (P27986 whole entry partner): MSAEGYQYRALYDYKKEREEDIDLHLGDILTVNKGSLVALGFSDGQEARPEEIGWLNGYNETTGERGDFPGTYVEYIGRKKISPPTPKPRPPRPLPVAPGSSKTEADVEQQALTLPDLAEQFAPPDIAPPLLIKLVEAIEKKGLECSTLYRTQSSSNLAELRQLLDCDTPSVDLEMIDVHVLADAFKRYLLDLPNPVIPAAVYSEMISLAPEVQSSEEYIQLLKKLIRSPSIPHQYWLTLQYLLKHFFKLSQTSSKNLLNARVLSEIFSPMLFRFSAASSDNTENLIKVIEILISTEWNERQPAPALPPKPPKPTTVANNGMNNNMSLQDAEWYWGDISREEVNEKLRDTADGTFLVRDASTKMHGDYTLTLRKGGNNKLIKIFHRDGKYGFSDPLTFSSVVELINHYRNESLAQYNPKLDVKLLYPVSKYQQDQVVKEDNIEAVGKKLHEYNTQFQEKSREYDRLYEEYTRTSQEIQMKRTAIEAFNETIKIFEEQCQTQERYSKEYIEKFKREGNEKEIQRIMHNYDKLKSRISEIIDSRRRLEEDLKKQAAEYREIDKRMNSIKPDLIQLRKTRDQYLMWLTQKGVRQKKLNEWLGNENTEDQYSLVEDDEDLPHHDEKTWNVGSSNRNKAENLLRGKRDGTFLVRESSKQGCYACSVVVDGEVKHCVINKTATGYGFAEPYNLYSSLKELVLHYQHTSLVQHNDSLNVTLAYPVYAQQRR
T1 sequence (P42336 whole entry, species assumed): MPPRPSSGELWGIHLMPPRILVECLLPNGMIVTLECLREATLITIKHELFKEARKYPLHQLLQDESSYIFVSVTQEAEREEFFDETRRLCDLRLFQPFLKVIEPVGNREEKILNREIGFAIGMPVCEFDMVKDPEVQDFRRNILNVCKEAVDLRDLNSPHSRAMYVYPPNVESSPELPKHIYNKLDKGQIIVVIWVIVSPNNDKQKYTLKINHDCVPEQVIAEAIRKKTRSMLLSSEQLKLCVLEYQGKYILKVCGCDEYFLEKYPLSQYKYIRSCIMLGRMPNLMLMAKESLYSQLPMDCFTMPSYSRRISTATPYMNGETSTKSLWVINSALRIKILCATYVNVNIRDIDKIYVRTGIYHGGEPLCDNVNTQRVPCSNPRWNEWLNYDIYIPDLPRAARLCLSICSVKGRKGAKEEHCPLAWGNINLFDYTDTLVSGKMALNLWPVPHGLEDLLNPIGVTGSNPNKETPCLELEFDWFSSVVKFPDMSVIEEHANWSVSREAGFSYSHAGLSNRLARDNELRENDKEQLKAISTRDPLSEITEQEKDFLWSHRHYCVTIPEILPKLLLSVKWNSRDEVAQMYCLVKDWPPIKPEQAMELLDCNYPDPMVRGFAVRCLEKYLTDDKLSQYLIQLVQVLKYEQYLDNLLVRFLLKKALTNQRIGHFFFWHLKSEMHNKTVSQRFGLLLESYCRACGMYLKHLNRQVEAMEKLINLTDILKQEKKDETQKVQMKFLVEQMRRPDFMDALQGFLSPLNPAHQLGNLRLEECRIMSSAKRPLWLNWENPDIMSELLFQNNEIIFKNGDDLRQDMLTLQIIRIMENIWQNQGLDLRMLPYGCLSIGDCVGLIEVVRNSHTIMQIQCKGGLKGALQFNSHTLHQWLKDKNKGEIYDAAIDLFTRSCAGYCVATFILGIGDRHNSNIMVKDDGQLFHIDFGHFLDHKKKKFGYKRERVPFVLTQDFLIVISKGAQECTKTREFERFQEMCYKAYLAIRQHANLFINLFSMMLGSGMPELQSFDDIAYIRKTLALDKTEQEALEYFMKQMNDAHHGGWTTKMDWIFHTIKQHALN
T1 sequence (P27986 whole entry partner, species assumed): as the sequence (P27986 whole entry partner) above

Row | Compound | IC50 [1] [nM] | IC50 [2] [nM] | IC50 [3, 4] [nM] | IC50 ([3]; HCT 116 cells) [nM]
1 | COc1ccc(S(=O)(=O)N(C)c2nccc(-c3ccc4nc(NC(C)=O)sc4c3)n2)cc1 [Example 88, N-(6-(2-(4-Methoxy-N-methylphenylsulfonamido)pyrimidin-4-yl)benzo[d]thiazol-2-yl)acetamide] | 39.3 | 79.1 | 68.8 | –
2 | CC(=O)Nc1nc2ccc(-c3cnc(Cl)c(NS(=O)(=O)c4cccc(OC(F)F)c4)c3)cc2s1 [Example 184, N-(6-(6-chloro-5-(3-(difluoromethoxy)phenylsulfonamido)pyridin-3-yl)benzo[d]thiazol-2-yl)acetamide] | 7.2 | 12.2 | 6.5 | –
3 | CC(=O)Nc1nc2ccc(-c3cccc(S(=O)(=O)c4ccc(F)cc4)n3)cc2s1 [Example 66, N-(6-(6-(4-Fluorophenylsulfonyl)pyridin-2-yl)benzo[d]thiazol-2-yl)acetamide] | 258 | 5610 | 2020 | –
4 | Nc1nc2ccc(-c3cnc(Cl)c(NS(=O)(=O)c4ccc(Cl)cc4F)c3)cc2s1 [Example 313, N-(5-(2-amino-1,3-benzothiazol-6-yl)-2-chloro-3-pyridinyl)-4-chloro-2-fluorobenzenesulfonamide] | 13.6 | 27.9 | 424 | –
5 | CC(=O)Nc1nc2ccc(-c3cncc(N(C)S(=O)(=O)c4ccc(C)cc4)n3)cc2s1 [Example 127, N-(6-(6-(methyl((4-methylphenyl)sulfonyl)amino)-2-pyrazinyl)-1,3-benzothiazol-2-yl)acetamide] | 27.8 | 31.6 | 58.1 | –
6 | CC(=O)Nc1nc2ccc(-c3ccnc(OCc4ccncc4)n3)cc2s1 [Example 17, N-(6-(2-(4-pyridinylmethoxy)-4-pyrimidinyl)-1,3-benzothiazol-2-yl)acetamide] | 523 | 11100 | 1060 | –
7 | CC(=O)Nc1nc2ccc(-c3ccnc(N(C)S(=O)(=O)c4ccc(C)cc4C)n3)cc2s1 [Example 212, N-(6-(2-(N,2,4-trimethylphenylsulfonamido)pyrimidin-4-yl)benzo[d]thiazol-2-yl)acetamide] | 72.2 | 60.3 | 237 | –
8 | COc1cc(-c2ccc3nc(NC(C)=O)sc3c2)cnc1Cl [Example 240, N-(6-(6-chloro-5-methoxypyridin-3-yl)benzo[d]thiazol-2-yl)acetamide] | 155 | 1280 | 643 | –
9 | CC(=O)Nc1nc2ccc(-c3cnc(Cl)c(NS(=O)(=O)c4ccc(C(C)O)cc4)c3)cc2s1 (single isomer, unassigned) [Example 257, N-(6-(6-chloro-5-(((4-(1-hydroxyethyl)phenyl)sulfonyl)amino)-3-pyridinyl)-1,3-benzothiazol-2-yl)acetamide] | 6.2 | 7.2 | – | 8.3
10 | COc1ccc(Sc2nccc(-c3ccc4nc(NC(C)=O)sc4c3)n2)cc1 [Example 16, N-(6-(2-(4-Methoxyphenylthio)pyrimidin-4-yl)benzo[d]thiazol-2-yl)acetamide] | 53.5 | 106 | 825 | –
11 | CC(=O)Nc1nc2ccc(-c3ccnc(OCc4ccc5ncccc5c4)n3)cc2s1 [Example 22, N-(6-(2-(6-quinolinylmethoxy)-4-pyrimidinyl)-1,3-benzothiazol-2-yl)acetamide] | 124 | > 40000 | > 40000 | –

More lines, in order of falling IC50 [1], values ahead:

Row | IC50 [1] [nM] | IC50 [2] [nM] | IC50 [3, 4] [nM] | IC50 ([3]; HCT 116 cells) [nM] | Compound
12 | 254 | 402 | > 5000 | – | CNC(=O)Nc1nc2ccc(-c3ccnc(OCc4ccccc4)n3)cc2s1 [Example 56, 1-(6-(2-(benzyloxy)-4-pyrimidinyl)-1,3-benzothiazol-2-yl)-3-methylurea]
13 | 73.5 | 10700 | 816 | – | COc1ccncc1-c1ccc2nc(NC(C)=O)sc2c1 [Example 241, N-(6-(4-methoxypyridin-3-yl)benzo[d]thiazol-2-yl)acetamide]
14 | 65 | 1140 | 901 | – | CC(=O)Nc1nc2c(F)cc(-c3cccc(S(=O)(=O)c4ccccc4F)n3)cc2s1 [Example 137, N-(4-fluoro-6-(6-((2-fluorophenyl)sulfonyl)-2-pyridinyl)-1,3-benzothiazol-2-yl)acetamide]
15 | 58.9 | 1450 | > 5000 | – | CN(C)c1cc(-c2ccc3nc(NC(=O)COc4ccccc4)sc3c2)cnc1Cl [Example 272, N-(6-(6-chloro-5-(dimethylamino)pyridin-3-yl)benzo[d]thiazol-2-yl)-2-phenoxyacetamide]
16 | 10.3 | 35.8 | 7 | – | CC(=O)Nc1nc2ccc(-c3cnc(Cl)c(NS(=O)(=O)N4CCCCC4)c3)cc2s1 [Example 316, N-(6-(6-chloro-5-((1-piperidinylsulfonyl)amino)-3-pyridinyl)-1,3-benzothiazol-2-yl)acetamide]
